In patent publication US9028845B2, “Chimeric immunomodulatory compounds and methods of using the same-IV” (Dynavax Technologies Corporation, priority 2001, dated 2015):

How the values were obtained:
human PBMCs = assay: Human PBMC cytokine response assay (IFN-γ and IFN-α in cell-free medium by ELISA), with or without cPLGA; assay type: cell-based;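 as to IFN-α (pg/ml) mean: 20 µg/mL compound for 24 hours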;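 as to IFN-γ (pg/ml) mean: 20 µg/mL compound for 24 hours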
PBMCs = assay: Human PBMC proliferation assay (3H-thymidine incorporation); assay type: cell-based; conditions: Experiment A; for mean cpm: 2 μg/ml
CD19+ B cells = assay: Human B cell proliferation assay (3H-thymidine incorporation); conditions: 2 μg/ml
[1] = donor 28066, 20 ug/ml, 24 h, + PLGA = premixed with 100 μg/ml cPLGA
[2] = donor 28067, 20 ug/ml, 24 h, + PLGA = premixed with 100 μg/ml cPLGA
[3] = donor 28068, 20 ug/ml, 24 h, + PLGA = premixed with 100 μg/ml cPLGA
[4] = mean of donors 28065-28068, 20 ug/ml, 24 h, + PLGA = premixed with 100 μg/ml cPLGA
[5] = B cells, Donor 146, Experiment A
[6] = B cells, Donor 147, Experiment A

## 5′-TGCTGC-3′-HEG-5′-AGCTTGC-3′-HEG-5′-AGATGAT-3′ [Compound M-1, reference compound]
Human PBMCs; Table 10, donor 28042
  IFN-α: 0 pg/mL
  IFN-γ: 45 pg/mL
Human PBMCs; Table 10, donor 28043
  IFN-α: 0 pg/mL
  IFN-γ: 29 pg/mL
Human PBMCs; Table 10, donor 28044
  IFN-α: 13 pg/mL
  IFN-γ: 7 pg/mL
Human PBMCs; Table 10, donor 28045
  IFN-α: 2 pg/mL
  IFN-γ: 3 pg/mL
Human PBMCs; Table 10, mean of donors
  IFN-α mean: 4 pg/mL
  IFN-γ mean: 21 pg/mL
Human PBMCs; donor 28065 (high background), 20 ug/ml, 24 h, + PLGA = premixed with 100 μg/ml cPLGA, 1000 = outside assay limits
  IFN-γ (pg/ml) 28065: 157 pg/mL
Human PBMCs; donor 28065, 20 ug/ml, 24 h, + PLGA = premixed with 100 μg/ml cPLGA
  IFN-α (pg/ml) 28065: 0 pg/mL
Human PBMCs; [1]
  IFN-α (pg/ml) 28066: 0 pg/mL
  IFN-γ (pg/ml) 28066: 1 pg/mL
Human PBMCs; [2]
  IFN-α (pg/ml) 28067: 3 pg/mL
  IFN-γ (pg/ml) 28067: 40 pg/mL
Human PBMCs; [3]
  IFN-α (pg/ml) 28068: 0 pg/mL
  IFN-γ (pg/ml) 28068: 2 pg/mL
Human PBMCs; [4]
  IFN-α (pg/ml) mean: 1 pg/mL
  IFN-γ (pg/ml) mean: 50 pg/mL
Human PBMCs; used alone (no cPLGA)
  immunomodulatory activity (IFN-γ / IFN-α secretion), in words: did not show activity
PBMCs; Donor 146, 2 μg/ml
  cpm1: 8753 cpm
  cpm2: 5203 cpm
  cpm3: 4496 cpm
PBMCs; Donor 146 mean
  mean cpm: 6151 cpm
PBMCs; Donor 147, 2 μg/ml
  cpm1: 1034 cpm
  cpm2: 3298 cpm
  cpm3: 1674 cpm
PBMCs; Donor 147 mean
  mean cpm: 2002 cpm
PBMCs; mean of Donors 146 and 147, 2 μg/ml
  mean of both: 4076 cpm
CD19+ B cells; 48 h plus 8 h 3H-thymidine pulse
  B cell proliferation, in words: little to no B cell proliferation
CD19+ B cells; [5]
  cpm1: 1514 cpm
  cpm2: 2815 cpm
  cpm3: 1173 cpm
CD19+ B cells; B cells, Donor 146 mean, Experiment A
  mean cpm: 1834 cpm
CD19+ B cells; [6]
  cpm1: 1679 cpm
  cpm2: 1667 cpm
  cpm3: 1436 cpm
CD19+ B cells; B cells, Donor 147 mean, Experiment A
  mean cpm: 1594 cpm
CD19+ B cells; B cells, mean of Donors 146 and 147, Experiment A
  mean of both: 1714 cpm
